Results on six molecules are retold here after ChEMBL document CHEMBL3632515, “Discovery of an L-alanine ester prodrug of the Hsp90 inhibitor, MPC-3100” (Bioorg Med Chem Lett, 2015).

In brackets after ≈: the same amount, converted by molar mass. Activity calls are given as the source filed them. No cut-off for these calls is given here.

The subject of data set [1] is Mus musculus. Kind of data set: Toxicity in nu+/- mouse assessed as mortality at 286 mg/kg, po. The format is organism-based. As to conditions: in vivo.
The subject of data set [2] is NCI-N87. As to the kind of experiment: Antitumor activity against human NCI-N87 cells xenografted in mouse assessed as tumor growth inhibition at 265 mg/kg, po. The format is functional, organism-based.
Data set [3] can be described thus: Cmax in mouse at 200 mg/kg, po administered with 2% CMC by LC-ESI-MS/MS analysis. Further details: dose 200 mg/kg, route oral. As to conditions: in vivo. It counts as ADME, organism-based.
Data set [4] can be described thus: Tmax in mouse at 200 mg/kg, po administered with 40% captisol by LC-ESI-MS/MS analysis. The format is ADME, organism-based. As to conditions: in vivo.
The subject of data set [5] is Plasma. As to the kind of experiment: Drug level in mouse plasma treated with MPC-0767. The format is ADME, cell-free.
The nature of data set [6]: Oral bioavailability in mouse at 200 mg/kg administered with 40% captisol by LC-ESI-MS/MS analysis. Conditions: in vivo. It counts as ADME, organism-based.
Data set [7] in a line: Cmax in mouse at 200 mg/kg, po administered with 40% captisol by LC-ESI-MS/MS analysis. Set-up: dose 200 mg/kg, route oral. Conditions: in vivo. It counts as ADME, organism-based.
In data set [8] the test system is Liver microsome. As to the kind of experiment: Drug level in human liver microsomes treated with MPC-0767. It counts as ADME. Background: Liver microsomes are vesicles of endoplasmic reticulum, rich in cytochrome P450 enzymes.
A short description of data set [9]: AUC in mouse at 200 mg/kg, po administered with 2% CMC by LC-ESI-MS/MS analysis. The format is ADME, organism-based. Conditions: in vivo.
Data set [10] has as its system Liver. Kind of data set: Drug level in mouse liver microsomes treated with MPC-0767. The format is ADME.
Data set [11] can be described thus: Oral bioavailability in mouse at 200 mg/kg administered with 2% CMC by LC-ESI-MS/MS analysis. It counts as ADME, organism-based. Conditions: in vivo.
Data set [12] is described as follows: Aqueous solubility of the compound in simulated intestinal fluid at pH 6.8. The format is physicochemical.
A short description of data set [13]: Drug level in simulated intestinal fluid treated with MPC-0767 at pH 6.8 in presence of pancreatin. It counts as physicochemical. Conditions: simulated gi fluid.
A short description of data set [14]: Tmax in mouse at 200 mg/kg, po administered with 2% CMC by LC-ESI-MS/MS analysis. The format is ADME, organism-based. Conditions: in vivo.
Data set [15] is described as follows: AUC in mouse at 200 mg/kg, po administered with 40% captisol by LC-ESI-MS/MS analysis. As to conditions: in vivo. The format is ADME, organism-based.
Data set [16] can be described thus: Apparent permeability of the compound at pH 6.2. It counts as physicochemical. Conditions: not told.
Data set [17] is described as follows: Kinetic solubility of the compound at pH 6.5. As to conditions: buffer, read-out: Kinetic_solubility. It counts as physicochemical.
The test system of data set [18] is NCI-N87. As to the kind of experiment: Antitumor activity against human NCI-N87 cells xenografted in mouse assessed as tumor growth inhibition at 200 mg/kg, po relative to control. As to conditions: read-out: TGI. The format is functional.
Data set [19] in a line: Toxicity in po dosed nu+/- mouse. The format is organism-based. Conditions: in vivo.
Data set [20] in a line: Half life in mouse plasma. It counts as ADME, cell-free.
Data set [21] can be described thus: Half life in simulated intestinal fluid at pH 6.8. It counts as ADME.
Data set [22] relates to Mus musculus. As to the kind of experiment: Tmax in mouse assessed as MPC-3100 at 265 mg/kg, po administered with 2% CMC by LC-ESI-MS/MS analysis. The format is ADME, organism-based. Conditions: in vivo.
The subject of data set [23] is Mus musculus. Kind of data set: Cmax in mouse assessed as MPC-3100 at 265 mg/kg, po administered with 2% CMC by LC-ESI-MS/MS analysis. The format is ADME, organism-based. Set-up: dose 265 mg/kg, route oral. Conditions: in vivo.
Data set [24] can be described thus: Half life in simulated intestinal fluid at pH 6.8 in presence of pancreatin. The format is ADME. Conditions: simulated intestinal fluid with pancreatin.
Data set [25] has as its system Mus musculus. Kind of data set: AUC in mouse assessed as MPC-3100 at 265 mg/kg, po administered with 2% CMC by LC-ESI-MS/MS analysis. It counts as ADME, organism-based. As to conditions: in vivo.
For data set [26], the system named is Plasma. Kind of data set: Prodrug conversion in mouse plasma assessed as formation of MPC-3100. It counts as ADME, cell-free.
Data set [27] is described as follows: Half life in simulated gastric fluid at pH 1.2 in presence of pepsin. The format is ADME. Conditions: simulated gastric fluid with pepsin.
A short description of data set [28]: Half life in mouse liver microsomes in absence of NADPH. It counts as ADME.
The nature of data set [29]: Half life in human plasma. The format is ADME, cell-free.
Data set [30] is described as follows: Aqueous solubility of the compound in simulated intestinal fluid at pH 6.5 to 6.8. The format is physicochemical.
In data set [31] the test system is Liver microsome. As to the kind of experiment: Prodrug conversion in human liver microsomes assessed as formation of MPC-3100. It counts as ADME.
Data set [32] in a line: Half life in monkey plasma. The format is ADME, cell-free, Macaca mulatta. Conditions: rhesus monkey.
The nature of data set [33]: Half life in phosphate buffer at pH 7.4. It counts as physicochemical.
Data set [34] is described as follows: Half life in mouse liver microsomes in presence of NADPH. The format is ADME.
The nature of data set [35]: Half life in human liver microsomes in absence of NADPH. The format is ADME.
Data set [36] can be described thus: Half life in simulated gastric fluid at pH 1.2. It counts as ADME.
Data set [37] concerns Mus musculus. As to the kind of experiment: Toxicity in mouse xenografted with human NCI-N87 cells assessed as body weight loss at 265 mg/kg, po. The format is organism-based. Conditions: in vivo. In general terms: A xenograft is tissue or cells of one species grown in another, often human tumour cells in immunodeficient mice.
Data set [38] in a line: Half life in human liver microsomes in presence of NADPH. It counts as ADME.
For data set [39], the system named is Liver. Kind of data set: Prodrug conversion in mouse liver microsomes assessed as formation of MPC-3100. The format is ADME.
Data set [40] relates to Mus musculus. As to the kind of experiment: Oral bioavailability in mouse assessed as MPC-3100 at 265 mg/kg administered with 2% CMC by LC-ESI-MS/MS analysis. It counts as ADME, organism-based. As to conditions: in vivo.
For data set [41], the system named is NCI-N87. Kind of data set: Antitumor activity against human NCI-N87 cells xenografted in mouse assessed as tumor regression. The format is functional.
For data set [42], the system named is Mus musculus. As to the kind of experiment: Oral bioavailability in mouse assessed as MPC-3100. Conditions: in vivo. The format is ADME, organism-based.

On to `C[C@H](OC(=O)[C@@H](N)CCCCN)C(=O)N1CCC(CCn2c(Sc3cc4c(cc3Br)OCO4)nc3c(N)ncnc32)CC1.Cl.Cl.Cl`, for which the Activity result in the data set on Mus musculus [1] was “Toxic”.

For `C[C@H](N)C(=O)O[C@@H](C)C(=O)N1CCC(CCn2c(Sc3cc4c(cc3Br)OCO4)nc3c(N)ncnc32)CC1`, in the data set on NCI-N87 [2], the TGI entry was “Active”.

In general, Cmax refers to the maximum level reached in the sampled fluid or tissue. Usually Tmax stands for the time from dosing to the highest level. By bioavailability is commonly meant dose-corrected exposure relative to a reference, in per cent. A word on the AUC: it is concentration integrated over time. By solubility is commonly meant the concentration that dissolves in the medium under given conditions. What is called Papp is the rate of passage across a membrane or cell layer, normalised by area and donor concentration. For `C[C@H](O)C(=O)N1CCC(CCn2c(Sc3cc4c(cc3Br)OCO4)nc3c(N)ncnc32)CC1`, the highest concentration (Cmax) in data set [3] is 7370 ng/mL; in data set [7], 24900 ng/mL. For the same molecule, the values for the Tmax in data set [4] and in data set [14] were 1 h and 0.3 h, respectively. Besides, the Drug metabolism entry (with Plasma [5]; in the data set with Liver microsome [8]; in the data set on Liver [10]; in data set [13]) was “metabolite_detected” in each case. Besides, the bioavailability in data set [6] was 67%; in data set [11], 21%. The results for the AUC in data set [9] and in [15] were 35100 ng·h/mL and 113000 ng·h/mL, respectively. Moreover, the concentration in solution in data set [12] (solubility) was 7.5 µg/mL (≈ 13.6 µM). The Papp in data set [16] is 420 ×10⁻⁶ cm/s. Also, the solubility kinetic in data set [17] turned out to be 10.2 µg/mL (≈ 18.6 µM). In addition, the inhibition in vivo at 200 mg/kg in the data set with NCI-N87 [18] came out at 46%.

For the molecule `C[C@H](N)C(=O)O[C@@H](C)C(=O)N1CCC(CCn2c(Sc3cc4c(cc3Br)OCO4)nc3c(N)ncnc32)CC1.Cl.Cl`, the MTD in data set [19] came out at 252 mg/kg.

What is called half-life is the time in which the quantity being followed falls by half. For the molecule `CS(=O)(=O)O.C[C@H](N)C(=O)O[C@@H](C)C(=O)N1CCC(CCn2c(Sc3cc4c(cc3Br)OCO4)nc3c(N)ncnc32)CC1`, the half-life in [20] is under 2 min; in data set [21], 2.88 h; in data set [24], 0.367 h; in data set [27], over 4 h; in data set [28], under 2 min; in data set [29] it was 2.48 h. The half-life is 5 h in data set [32]; 2.42 h in [33]; under 2 min in [34]; 2 min in [35]; over 4 h in [36]; 2 min in [38]. Besides, the Tmax in the data set with Mus musculus [22] stood at 1 h. Further, in the data set with Mus musculus [23], the Cmax was 21562 ng/mL. The AUC with Mus musculus [25] is 94194 ng·h/mL. Also, the Drug metabolism entry in the data set on Plasma [26], with Liver microsome [31] and in the data set on Liver [39] was “metabolite_detected” each time. This molecule also yielded a solubility in data set [30] of over 1000 µg/mL. Further, the Activity entry with Mus musculus [37] is given as “Non-toxic”. The Papp in [16] was found to be 2.7 ×10⁻⁶ cm/s. Moreover, in [17], the solubility kinetic amounted to 536 µg/mL. The F in the data set with Mus musculus [40] worked out at 56%.

In data set [30], `C[C@H](OC(=O)[C@@H](N)CCCCN)C(=O)N1CCC(CCn2c(Sc3cc4c(cc3Br)OCO4)nc3c(N)ncnc32)CC1` yielded a solubility of over 1000 µg/mL. The TGI with NCI-N87 [41] is over 40%. Also, the F in the data set on Mus musculus [42] is over 40%.
